Results as given in patent publication US12202829B2, “Heterocyclic compound” (FIMECS, Inc., priority 2018, dated 2025).
Counter-ions that a name gives are not always drawn.

Target: T1, human XIAP_BIR3 domain purified protein (Homo sapiens, UniProt P98170)
T1 construct: purchased R & D
Experiment: XIAP binding inhibitory activity, HTRF method with b-Smac ligand
Details: for inhibition at 3 µM: test compound 3 μM, first symbol of the cell, read-out: XIAP binding inhibition rate when the concentration of the test compound is 3 μM; for IC50: second symbol of the cell, read-out: XIAP binding 50% inhibitory concentration (IC50 value)
Experimental: Human XIAP binding inhibitory activity were measured by the Homogeneous Time Resolved Fluorescence (HTRF) method with using commercially available human XIAP_BIR3 domain purified protein (R & D) and as a ligand a Smac N-terminal peptide (AVPIAQK (SEQ ID NO: 1)) (hereinafter referred to as “b-Smac”; Peptide Research Laboratories, Inc.) biotinylated at the C-terminus according to a conventional method.
The HTRF method will be described in detail below. A test compound diluted with a reaction buffer was added to a 384-well white shallow bottom plate (Greiner 784076) at 1 μL/well and flash centrifuged for 30 seconds. Subsequently, human XIAP_BIR3 domain purified protein was diluted with the reaction buffer (25 mM HEPES Buffer containing 100 mM NaCl, 0.1% BSA, and 0.1% triton X-100, pH 7.5) to obtain a 90 nM sample diluent, and the resultant sample diluent was added to the above-mentioned white superficial plate at 4.5 μL/well and flash centrifuged for 30 seconds. Subsequently, b-Smac diluted to 90 nM with the reaction buffer was added to the above-mentioned white superficial plat at 4.5 μL/well and flash centrifuged for 30 seconds. A mixed solution of Anti-6 HIS-Cryptate (Eu3+Cryptate-conjugated mouse monoclonal antibody anti-6 Histidine; cisbio) and Streptavidin-XL^ent! (Highgrade XL665-conjugated streptavidin; cisbio) both diluted 100-fold with HTRF detection buffer (cisbio) at a volume ratio of 1:1 was added to the above white superficial plate at 10 μL/well. After flash centrifuging the white shallow bottom plate for 30 seconds, the white shallow bottom plate was left at room temperature for 4 hours or more in the dark. The white superficial plate after being left was subjected to fluorescence intensity measurement (excitation wavelength: 320 nm, fluorescence wavelength: 665 nm and 615 nm) by EnVision (Perkin Elmer).
The binding inhibition rate (%) was calculated based on the HTRF ratio in the presence of the test compound to the HTRF ratio in the absence of the test compound (fluorescence intensity at 665 nm/fluorescence intensity at 615 nm).

T1 sequence (P98170 252-356 limits assumed): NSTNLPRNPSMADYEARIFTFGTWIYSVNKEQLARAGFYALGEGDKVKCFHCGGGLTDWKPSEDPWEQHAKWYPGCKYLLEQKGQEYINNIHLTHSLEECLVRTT

Structure (SMILES) | inhibition at 3 µM [%] | IC50 [µM]
CN[C@@H](C)C(=O)N[C@H](C(=O)N1CCN(C(=O)c2ccc3c(c2)c(F)c(C)n3CCOCCOCCO)CC1)C1CCCCC1 [Example 71, (S)—N—((S)-1-Cyclohexyl-2-(4-(3-fluoro-1-(2-(2-(2-hydroxyethoxy)ethoxy)ethyl)-2-methyl-1H-indole-5-carbonyl)piperazin-1-yl)-2-oxoethyl)-2-(methylamino)propanamide] | > 75 | –
CN[C@@H](C)C(=O)N[C@H](C(=O)N1CCN(C(=O)c2cc3cc(F)ccc3n2CC(=O)NCCOCCNC(=O)C[C@@H]2N=C(c3ccc(Cl)cc3)c3c(sc(C)c3C)-n3c(C)nnc32)CC1)C1CCCCC1 [Example 75, (S)-N-((S)-2-(4-(1-(2-((2-(2-(2-((S)-4-(4-chlorophenyl)-2,3,9-trimethyl-6H-thieno[3,2-f][1,2,4]triazolo[4,3-a][1,4]diazepin-6-yl)acetamido)ethoxy)ethyl)amino)-2-oxoethyl)-5-fluoro-1H-indole-2-carbonyl)piperazin-1-yl)-1-cyclohexyl-2-oxoethyl)-2-(methylamino)propanamide] | > 25 | –
CN[C@@H](C)C(=O)N[C@H](C(=O)N1CCN(C(=O)c2c(OCCOCCOCc3ccccc3)c3cc(F)c(F)cc3n2C)CC1)C1CCCCC1 [Example 49, (S)—N—((S)-2-(4-(3-(2-(2-(Benzyloxy)ethoxy)ethoxy)-5,6-difluoro-1-methyl-1H-indole-2-carbonyl)piperazin-1-yl)-1-cyclohexyl-2-oxoethyl)-2-(methylamino)propanamide] | – | 3 to 30
CN[C@@H](C)C(=O)N[C@H](C(=O)N1CCN(C(=O)c2cc3cc(F)ccc3n2C)C[C@H]1C)C1CCCCC1 [Example 58, (S)—N—((S)-1-Cyclohexyl-2-((R)-4-(5-fluoro-1-methyl-1H-indole-2-carbonyl)-2-methylpiperazin-1-yl)-2-oxoethyl)-2-(methylamino)propanamide Trifluoroacetate] | – | 0.3 to 3
CN[C@@H](C)C(=O)N[C@H](C(=O)N1CCN(C(=O)c2cc3cccnc3n2C)CC1)C1CCCCC1 [Example 13, (S)-N-((S)-1-cyclohexyl-2-(4-(1-methyl-1H-pyrrolo[2,3-b]pyridine-2-carbonyl)piperazin-1-yl)-2-oxoethyl)-2-(methylamino)propanamide] | > 25 | –
CN[C@@H](C)C(=O)N[C@H](C(=O)N1CCN(C(=O)c2c(OCCOCCOCCOCCO)c3cc(F)c(F)cc3n2C)CC1)C1CCCCC1 [Example 63, (S)-N-((S)-1-cyclohexyl-2-(4-(5,6-difluoro-3-(2-(2-(2-(2-hydroxyethoxy)ethoxy)ethoxy)ethoxy)-1-methyl-1H-indole-2-carbonyl)piperazin-1-yl)-2-oxoethyl)-2-(methylamino)propanamide] | 25 to 50 | –
CN[C@@H](C)C(=O)N[C@H](C(=O)N1CCN(C(=O)c2cc3cc(F)c(F)cc3n2CCOCCO)CC1)C1CCCCC1 [Example 45, (S)—N—((S)-1-Cyclohexyl-2-(4-(5,6-difluoro-1-(2-(2-hydroxyethoxy)ethyl)-1H-indole-2-carbonyl)piperazin-1-yl)-2-oxoethyl)-2-(methylamino)propanamide] | – | 3 to 30
CCCc1cc(C(=O)N2CCN(C(=O)[C@@H](NC(=O)[C@H](C)NC)C3CCCCC3)CC2)n(C)n1 [Example 10, (S)-N-((S)-1-cyclohexyl-2-(4-(1-methyl-3-propyl-1H-pyrazole-5-carbonyl)piperazin-1-yl)-2-oxoethyl)-2-(methylamino)propanamide] | > 25 | –
CN[C@@H](C)C(=O)N[C@H](C(=O)N1CCN(C(=O)c2c(C(=O)N3CCC[C@@H]3COC)c3ccc(OC)cc3n2C)CC1)C1CCCCC1 [Example 30, (S)—N—((S)-1-Cyclohexyl-2-(4-(6-methoxy-3-((R)-2-(methoxymethyl)pyrrolidine-1-carbonyl)-1-methyl-1H-indole-2-carbonyl)piperazin-1-yl)-2-oxoethyl)-2-(methylamino)propanamide Hydrochloride] | 50 to 75 | –
CN[C@@H](C)C(=O)N[C@H](C(=O)N1CCN(C(=O)c2cc3c(OCCOCCOCCOCc4ccccc4)c(F)c(F)cc3n2C)CC1)C1CCCCC1 [Example 66, (S)—N—((S)-2-(4-(4-(2-(2-(2-(Benzyloxy)ethoxy)ethoxy)ethoxy)-5,6-difluoro-1-methyl-1H-indole-2-carbonyl)piperazin-1-yl)-1-cyclohexyl-2-oxoethyl)-2-(methylamino)propanamide] | – | 3 to 30
CN[C@@H](C)C(=O)N[C@H](C(=O)N1CCN(C(=O)c2cc3ccc(OC)cc3n2C)C[C@@H]1C)C1CCCCC1 [Example 32, (S)—N—((S)-1-Cyclohexyl-2-((S)-4-(6-methoxy-1-methyl-1H-indole-2-carbonyl)-2-methylpiperazin-1-yl)-2-oxoethyl)-2-(methylamino)propanamide Hydrochloride] | 50 to 75 | –
CN[C@@H](C)C(=O)N[C@H](C(=O)N1CCN(C(=O)c2c(C=O)c3cc(F)ccc3n2C)CC1)C1CCCCC1 [Example 35, (S)—N—((S)-1-Cyclohexyl-2-(4-(5-fluoro-3-formyl-1-methyl-1H-indole-2-carbonyl)piperazin-1-yl)-2-oxoethyl)-2-(methylamino)propanamide Hydrochloride] | > 75 | –
CN[C@@H](C)C(=O)N[C@H](C(=O)N1CCN(C(=O)c2ccc3c(c2)cc(C)n3CCOCCOCCOCCO)CC1)C1CCCCC1 [Example 70, (S)—N—((S)-1-Cyclohexyl-2-(4-(1-(2-(2-(2-(2-hydroxyethoxy)ethoxy)ethoxy)ethyl)-2-methyl-1H-indole-5-carbonyl)piperazin-1-yl)-2-oxoethyl)-2-(methylamino)propanamide] | – | 0.3 to 3
CN[C@@H](C)C(=O)N[C@H](C(=O)N1CCN(C(=O)c2c(C(=O)N3CC(OC)C3)c3ccc(OC)cc3n2C)CC1)C1CCCCC1 [Example 31, (S)—N—((S)-1-Cyclohexyl-2-(4-(6-methoxy-3-(3-methoxyazetidine-1-carbonyl)-1-methyl-1H-indole-2-carbonyl)piperazin-1-yl)-2-oxoethyl)-2-(methylamino)propanamide Hydrochloride] | 50 to 75 | –
CN[C@@H](C)C(=O)N[C@H](C(=O)N1CCN(C(=O)c2cc3c(OCCOCCOCCOCCO)c(F)c(F)cc3n2C)CC1)C1CCCCC1 [Example 68, (S)—N—((S)-1-Cyclohexyl-2-(4-(5,6-difluoro-4-(2-(2-(2-(2-hydroxyethoxy)ethoxy)ethoxy)ethoxy)-1-methyl-1H-indole-2-carbonyl)piperazin-1-yl)-2-oxoethyl)-2-(methylamino)propanamide] | – | 0.3 to 3
CN[C@@H](C)C(=O)N[C@H](C(=O)N1CCN(C(=O)c2cc3cc(F)c(OC)cc3n2C)C[C@H]1C)C1CCCCC1 [Example 57, (S)—N—[(S)-1-Cyclohexyl-2-[(R)-4-[(5-fluoro-6-methoxy-1-methyl-1H-indole-2carbonyl]-2-methylpiperazin-1-yl]-2-oxoethyl]-2-(methylamino)propanamide trifluoroacetate] | – | 0.3 to 3
CN[C@@H](C)C(=O)N[C@H](C(=O)N1CCN(C(=O)c2c(OCCOCCOCCO)c3cc(F)c(F)cc3n2C)CC1)C1CCCCC1 (stereo in doubt) [Example 62, (S)—N—((S)-1-Cyclohexyl-2-(4-(5,6-difluoro-3-(2-(2-(2-hydroxyethoxy)ethoxy)ethoxy)-1-methyl-1H-indole-2-carbonyl)piperazin-1-yl)-2-oxoethyl)-2-(methylamino)propanamide] | 25 to 50 | –
CN[C@@H](C)C(=O)N[C@H](C(=O)N1CCN(C(=O)c2cc3ccc(OC)cc3n2C)[C@@H](C)C1)C1CCCCC1 [Example 33, (S)—N—((S)-1-Cyclohexyl-2-((S)-4-(6-methoxy-1-methyl-1H-indole-2-carbonyl)-3-methylpiperazin-1-yl)-2-oxoethyl)-2-(methylamino)propanamide Hydrochloride] | > 75 | –
CN[C@@H](C)C(=O)N[C@H](C(=O)N1CCN(C(=O)c2cc3ccc(OC)cc3n2C)[C@H](C)C1)C1CCCCC1 [Example 34, (S)—N—((S)-1-Cyclohexyl-2-((R)-4-(6-methoxy-1-methyl-1H-indole-2-carbonyl)-3-methylpiperazin-1-yl)-2-oxoethyl)-2-(methylamino)propanamide Hydrochloride] | > 75 | –
CN[C@@H](C)C(=O)N[C@H](C(=O)N1CCN(C(=O)c2c(/C=C/C(=O)OC)c3cc(F)ccc3n2C)CC1)C1CCCCC1 [Example 43, Methyl (E)-3-(2-(4-((S)-2-cyclohexyl-2-((S)-2-(methylamino)propanamido)acetyl)piperazine-1-carbonyl)-5-fluoro-1-methyl-1H-indol-3-yl)acrylate Hydrochloride] | > 75 | –
